Source: ChEMBL document CHEMBL3885861, “Open TG-GATES”

Species on record: Rattus norvegicus
Test: Open TG-GATES - Regimen: Daily Repeat
Assay type: toxicity, organism-based, Sprague-Dawley
Design: regimen Daily Repeat, gender Male, age 6 weeks
Conditions: in vivo, po, route gavage; for TG / TP / gamma-GTP / ALP / ALT / AST / BUN / CRE / Ca / Cl / DBIL / GLC / IP / K / LDH / Na / PL / RALB / TBIL / TC: tissue Plasma; for APTT / Bas / Eos / Fbg / Ht / Lym / MCH / MCHC / MCV / Mono / PT / Plat / RBC / Ret / WBC / Hb / Neu: tissue Blood; for KIDNEY_L / KIDNEY_R / KIDNEY_TOTAL: tissue Kidney; for LIVER: tissue Liver
[1] = 0 mg/kg, […], dose level Control, time 28 day
[2] = 100 mg/kg, 72 h, dose level Low, time 3 day
[3] = 100 mg/kg, […], dose level Low, time 7 day
[4] = 100 mg/kg, […], dose level Low, time 14 day
[5] = 100 mg/kg, […], dose level Low, time 28 day

CCOc1ccc(NC(C)=O)cc1 [PHENACETIN]
TG [1]: 162.4 mg/dL | TP [1]: 6.4 g/dL | gamma-GTP [1]: 1 IU/L | TERMINAL_BW [2]: 232.8 g | APTT [2]: 20.2 s | Bas [2]: 0% | Eos [2]: 1.2% | Fbg [2]: 290.4 mg/dL | Ht [2]: 41.7% | Lym [2]: 76.8% | MCH [2]: 20.4 pg | MCHC [2]: 33% | MCV [2]: 61.8 fL | Mono [2]: 2.6% | PT [2]: 13.4 s | Plat [2]: 116.5 x10_4/uL | RBC [2]: 676.4 x10_4/ul | Ret [2]: 5.2% | WBC [2]: 101.2 x10_2/uL | KIDNEY_L [2]: 1 g | KIDNEY_R [2]: 1 g | KIDNEY_TOTAL [2]: 2.1 g | LIVER [2]: 10.9 g | ALP [2]: 1708.4 IU/L | ALT [2]: 40 IU/L | AST [2]: 70.4 IU/L | BUN [2]: 13 mg/dL | CRE [2]: 0.2 mg/dL | Ca [2]: 11.2 mg/dL | Cl [2]: 105.8 meq/L | DBIL [2]: 0.006 mg/dL | GLC [2]: 172.8 mg/dL | IP [2]: 6.8 mg/dL | K [2]: 4.2 meq/L | LDH [2]: 148 IU/L | Na [2]: 143.4 meq/L | PL [2]: 158.8 mg/dL | RALB [2]: 2.7 g/dL | TBIL [2]: 0.04 mg/dL | TC [2]: 77 mg/dL | TG [2]: 110.6 mg/dL | TP [2]: 5.8 g/dL | gamma-GTP [2]: 1.2 IU/L | TERMINAL_BW [3]: 270.6 g | TERMINAL_BW [4]: 323.2 g | TERMINAL_BW [5]: 411.2 g | APTT [3]: 16.8 s | Bas [3]: 0% | Eos [3]: 1.2% | Fbg [3]: 298.2 mg/dL | Hb [3]: 14.1 g/dL | Ht [3]: 42% | Lym [3]: 78.2% | MCHC [3]: 33.7% | MCV [3]: 60.3 fL | Mono [3]: 2% | Neu [3]: 18% | PT [3]: 13.4 s | Plat [3]: 123.3 x10_4/uL | RBC [3]: 696.4 x10_4/ul | Ret [3]: 5.6% | WBC [3]: 96.3 x10_2/uL | APTT [4]: 17.8 s | Bas [4]: 0.4% | Eos [4]: 0.8% | Fbg [4]: 292.4 mg/dL | Ht [4]: 43.4% | Lym [4]: 79.8% | MCH [4]: 19.9 pg | MCHC [4]: 34% | MCV [4]: 58.5 fL | Mono [4]: 2% | Neu [4]: 16.6% | PT [4]: 13.3 s | Plat [4]: 118.2 x10_4/uL | RBC [4]: 740.8 x10_4/ul | Ret [4]: 4.1% | WBC [4]: 112.5 x10_2/uL | APTT [5]: 18.4 s | Bas [5]: 0% | Eos [5]: 1.6% | Fbg [5]: 278.8 mg/dL | Hb [5]: 15 g/dL | Ht [5]: 43.8% | MCH [5]: 19 pg | MCHC [5]: 34.3% | MCV [5]: 55.3 fL | Mono [5]: 2.4% | Plat [5]: 122.4 x10_4/uL | RBC [5]: 792.8 x10_4/ul | Ret [5]: 3% | WBC [5]: 92.4 x10_2/uL | KIDNEY_L [3]: 1.1 g | KIDNEY_R [3]: 1.1 g | KIDNEY_TOTAL [3]: 2.3 g | KIDNEY_L [4]: 1.2 g | KIDNEY_R [4]: 1.2 g | KIDNEY_TOTAL [4]: 2.5 g | KIDNEY_L [5]: 1.4 g | KIDNEY_R [5]: 1.4 g | KIDNEY_TOTAL [5]: 2.8 g | LIVER [3]: 12.8 g | LIVER [4]: 13.9 g | LIVER [5]: 16.4 g | ALP [3]: 1550.8 IU/L | BUN [3]: 15.4 mg/dL | CRE [3]: 0.2 mg/dL | Ca [3]: 11.2 mg/dL | Cl [3]: 104.8 meq/L | DBIL [3]: 0.006 mg/dL | GLC [3]: 186 mg/dL | IP [3]: 6.9 mg/dL | K [3]: 4.3 meq/L | LDH [3]: 79.4 IU/L | Na [3]: 143.4 meq/L | PL [3]: 165.2 mg/dL | RALB [3]: 2.7 g/dL | TBIL [3]: 0.044 mg/dL | TG [3]: 152 mg/dL | TP [3]: 6 g/dL | gamma-GTP [3]: 1 IU/L | ALP [4]: 1582 IU/L | ALT [4]: 39.4 IU/L | AST [4]: 66.4 IU/L | CRE [4]: 0.2 mg/dL | Ca [4]: 10.9 mg/dL | Cl [4]: 106 meq/L | DBIL [4]: 0.022 mg/dL | GLC [4]: 184.2 mg/dL | IP [4]: 6.7 mg/dL | K [4]: 4.2 meq/L | LDH [4]: 118.6 IU/L | Na [4]: 143.4 meq/L | PL [4]: 162 mg/dL | RALB [4]: 2.7 g/dL | TBIL [4]: 0.062 mg/dL | TC [4]: 73.8 mg/dL | TG [4]: 157 mg/dL | TP [4]: 6 g/dL | gamma-GTP [4]: 1.2 IU/L | ALP [5]: 1231.2 IU/L | ALT [5]: 35.8 IU/L | AST [5]: 60.8 IU/L | BUN [5]: 15.6 mg/dL | CRE [5]: 0.3 mg/dL | Ca [5]: 10.8 mg/dL | Cl [5]: 105.6 meq/L | DBIL [5]: 0.02 mg/dL | GLC [5]: 191.8 mg/dL | IP [5]: 6.1 mg/dL | K [5]: 3.7 meq/L | LDH [5]: 66.6 IU/L | Na [5]: 145.2 meq/L | PL [5]: 148 mg/dL | RALB [5]: 2.9 g/dL | TBIL [5]: 0.052 mg/dL | TC [5]: 63.8 mg/dL | TG [5]: 156 mg/dL
